From patent US20040132121A1, “Method of identifying antibacterial compounds” (priority 2000, published 2004)
Like-named read-outs stand apart in the source and are kept apart here. Where a SMILES comes first, the peptide text is derived from it. Where no end group is shown, it is not given here.

Key:
[1] = biological target: T1, binding of E. coli α to E. coli β (Escherichia coli, UniProt P0A988); test: biochemical; details: for inhibition of the binding of α to β: plate inhibition assay as in Example 6, buffer BB14
T1 construct: made in house
Procedure: Recombinantly expressed wild type E. coli α subunit was purified and coated onto 96 well microtitre plates (Falcon flexible plates, Becton Dickinson) at 20 μg/ml in 100 mM Na2CO3, pH9.5 (50 μl/well, 4° C. overnight or 2 h, RT (RT). The plates were washed in WB3 (20 mM Tris (pH 7.5), 0.1 mM EDTA containing 0.05% v/v Tween 20). This buffer was used in all wash steps through out the assay. The plates were then blocked with “blotto” (5% skim milk powder in WB3, 100 μl/well, RT) until required. Immediately before use the plates were washed.
The purified synthetic peptides and β subunit were diluted in BB14 (20 mM Tris, pH 7.5, 10 mM MgCl2, 0.1 mM EDTA). Purified synthetic peptides with concentrations of 9.3-300 and 1000 μg/ml were allowed to complex with purified wild type β subunit (5 μg/ml) in a 96 well microtitre plate (Sarsted, Adelaide, Australia) pre-treated with “blotto” (30 min, RT). The reaction volume was 120 μl. The β subunit also was incubated in the absence of peptide or in the presence of the α subunit at 76.5 (μg/ml in BB14. All samples were incubated for 1 h (RT). Two 50 μl samples were transferred from each well to a corresponding well of the washed and “blocked” α subunit coated plates, and further incubated for 30 min (RT).
The plates were washed and treated with rabbit serum raised to the β subunit. The anti-serum was diluted 1:1000 in WB3 containing 10% “blotto”, dispensed at 50 μl/well and incubated for 12 min (RT). The plates were washed again and treated with sheep anti-rabbit Ig-HRP conjugate (Silenus, Melbourne, Australia) diluted 1:1000 in WB3 containing 10% “blotto” (50 μl/well). The plate was incubated for 12 min (RT). After a final washing step, 1 mM 2,2′-azino-bis (3-ethylbenzthiazoline-6-sulfonic acid) was added (110 μl/well). Colour development was assessed at 405 nm using a plate reader (Multiskan Ascent, Labsystems, Sweden).
For the CMS compounds in the of α:β assays, buffer BB37 replaced buffer BB14. Buffer BB37 contains 10 mM MnCl2 instead of the 10 mM MgCl2 used in BB14. The buffer conditions were changed to improve the reproducibility and sensitivity of the α:β binding assay.
Compounds from the CMS library were dissolved in DMSO at 1 mg/ml in a 96 well tray format. A corresponding slave plate was prepared by adding 115 μl of BB37. Dissolved compounds (5 μl) from the master plate was added to the corresponding well in slave plates giving a final concentration of 41.7 μg/ml.
Compounds were assayed for inhibition of the binding of E. coli α to E. coli β as described in Example 13.
Peptides were assayed for inhibition of the binding of E. coli α to E. coli β as described in Example 6 with the exception that buffer BB37 replaced buffer BB14 in the alpha:beta binding assay. As noted above, BB37 contains 10 mM MnCl2 instead of 10 mM MgCl2 used in BB14. Again, the change in buffer conditions was made to improve the reproducibility and sensitivity of the α:β binding assay.

[2] = biological target: binding of E. coli δ to E. coli β (Escherichia coli, UniProt P0A988); test: biochemical; details: for inhibition of the binding of δ to β: plate binding assay as in Example 6
β subunit [3] = biological target: T2, β subunit (Escherichia coli, UniProt P0A988); test: Surface plasmon resonance solution affinity analysis (IC50 of free peptide); assay type: binding, E. coli
Procedure: (§1) Reverse phase HPLC purified peptides (10 μg) were reacted with 1 mg biotin-linker (6-(6-((biotinoyl)amino(hexanoyl) amino) hexanoic acid) sulphosuccinimidyl ester; Molecular Probes, Eugene, Oreg.) (20 mg/ml in DMSO) in 75 mM sodium borate (pH8.5) overnight (RT) with rotation. […] Biotinylated peptides that eluted later than the biotin-linker and free peptide, were collected, vacuum dried and then dissolved in water. SPR was conducted on a Biacore 2000 using streptavidin derivitised flow cell surfaces (Biacore). All β subunit and free peptide solutions were prepared in BB14 with 150 mM NaCl.
For the solution affinity analyses, higher loadings of the biotinylated peptides on the flow cell surfaces, and therefore high RU (700-1000), were established. Loading with peptide 4 generated a negative control surface. […] In all data manipulations, the RU values of this surface was subtracted from the RU values of the test surface. A calibration curve of RU values generated at different concentrations of the β subunit over 10-100 nM was developed for each biotinylated peptide attached to the flow cell surface. To determine the inhibitory effect of free peptide, 100 nM β subunit was pre-incubated for 5 min with different concentrations of free peptide (10 nM to 4.5 μM, in duplicate) to form a complex of β subunit and peptide and then passed over the flow cell surfaces. The amount of free uncomplexed βremaining was determined from the calibration curve. The log of the concentration of the uncomplexed (free) β subunit was plotted against the log concentration of inhibitory peptide.

β subunit [4] = biological target: T2, β subunit; test: biochemical; assay type: binding, E. coli; details: SPR, 1:1 Langmuir model
Procedure: as §1
The data was fitted to the 1:1 Langmuir model by the BioEvaluation software (Biacore).

B. subtilis IH 6140 = test: Inhibition of growth of B. subtilis by peptides (OD620 growth curve); assay type: cell-based, Bacillus subtilis
Procedure: B. subtilis IH 6140 was subcultured from a fresh plate into a 10 ml tube containing 5 ml of Oxoid Mueller-Hinton broth (Oxoid code CM405 Oxoid Manual 7th edition 1995 pg 2-161). This culture was shaken at 120 rpm at 37° C. for 21 h and then diluted in normal saline to 0.5 McFarland Standard (NCCLS Performance standard for Dilution Antimicrobial Susceptibility Testing M7-A4 January 1997). This suspension was further diluted 1:5 in normal saline to form the bacterial starter culture. Peptides were tested at a final concentration of 1 mg/ml in a flat bottom 96 well plate (Nunclon surface, sterile Nalge Nunc International). Wells were prepared by using 100 μl of double strength Mueller-Hinton Broth, an appropriate volume of peptide and the final volume made up to 190 μl. The wells were then inoculated with 10 μl of the starter culture.
The plate was sealed with a clear adhesive plate seal (Abgene House). It was then placed in a Labsystems Multiskan Ascent spectrophotometer. The plate was incubated at 37° C. with shaking at 120 rpm every alternate 10 seconds. The absorbence at 620 nm was measured every 30 min for 16 h.

[5] = Table 24, buffer BB37 (10 mM MnCl2), read-out: IC50 α:β
[6] = Table 17, α-coated plate, β 5 μg/ml, buffer BB14, read-out: IC50 α (inhibition of binding of α to β) (converted)
[7] = IC50 δ (inhibition of binding of δ to β), Table 17, δ-coated plate, β 1 μg/ml
[8] = free peptide with 100 nM β, biotinylated peptide 1 on flow cell surface, read-out: IC50 b-peptide 1
[9] = free peptide with 100 nM β, biotinylated peptide 14 on flow cell surface, read-out: IC50 b-peptide 14
[10] = biotinylated peptide on surface, read-out: KD
[11] = biotinylated peptide on flow cell surface, read-out: KD
[12] = Table 20, assayed as in Example 6, read-out: IC50 α:β
[13] = IC50 b-peptide 1, free peptide with 100 nM β, biotinylated peptide 1 on flow cell surface
[14] = IC50 b-peptide 14, free peptide with 100 nM β, biotinylated peptide 14 on flow cell surface
[15] = Table 21, NCI compounds, buffer BB14, read-out: IC50 α-binding
[16] = B. subtilis IH 6140, peptide 1 mg/ml, OD620 over 16 h

Chain of binding of E. coli δ to E. coli β (P0A988 whole entry): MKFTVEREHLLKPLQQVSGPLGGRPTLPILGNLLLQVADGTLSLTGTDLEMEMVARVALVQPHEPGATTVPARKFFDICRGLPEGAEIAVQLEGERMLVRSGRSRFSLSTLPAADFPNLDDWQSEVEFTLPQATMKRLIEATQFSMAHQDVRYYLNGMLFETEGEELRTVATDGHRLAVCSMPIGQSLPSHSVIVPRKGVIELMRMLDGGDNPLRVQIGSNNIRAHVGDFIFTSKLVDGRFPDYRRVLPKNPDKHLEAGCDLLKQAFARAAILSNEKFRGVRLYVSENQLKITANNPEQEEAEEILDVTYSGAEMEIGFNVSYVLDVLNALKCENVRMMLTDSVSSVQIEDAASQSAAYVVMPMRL
T1 sequence (P0A988 whole entry): as above
T2 sequence (P0A988 whole entry): as above

In the case of IGQLGLFGV [Peptide 110f], the IC50 [1, 5] is reported as 17.5 µM and the IC50 ([2]; IC50 δ:β, Table 24) is reported as 9.5 µM.

With IGQLDMFGV [pep1] the IC50 [1] was 2.86 µM and the IC50 [2] was 13.2 µM.

In the case of IGQLSLFGV [Peptide 13], the IC50 [1, 6] is reported as 1.52 µM, the IC50 [1, 5] is reported as 4.9 µM and the “inhibition of the binding of α to β” value [1] is reported as “significant inhibition”. For the same compound, the IC50 [2, 7] was 10.2 µM, the IC50 ([2]; IC50 δ:β, Table 24) was 5.9 µM and the “inhibition of the binding of δ to β” value [2] was “inhibited”. For the same compound, the IC50 (β subunit [3]; [8]) was 0.44 µM, the IC50 (β subunit [3]; [9]) was 0.55 µM and the Kd (β subunit [4]; [10]) was 0.778 µM. For the same compound, the Kd (β subunit [4]; [11]) was 0.8 µM.

For IGQLDLFGV [Peptide 14], the “inhibition of the binding of α to β” value [1] was “significant inhibition”, the “inhibition of the binding of δ to β” value [2] was “inhibited” and the IC50 (β subunit [3]; [8]) was 0.4 µM. It also gave an IC50 (β subunit [3]; [9]) of 0.5 µM, a Kd (β subunit [4]; [10]) of 0.8 µM and a Kd (β subunit [4]; [11]) of 0.778 µM.

Compound `CC(C)C[C@H](NC(=O)[C@@H](N)CC(=O)O)C(=O)N[C@@H](Cc1ccccc1)C(=O)O` [pep16] (H-Asp-Leu-Phe-OH; N-terminus and C-terminus assumed) has an IC50 [1, 6] of 343 µM, an IC50 [1, 12] of 135 µM and an IC50 [2, 7] of 3050 µM.

Work on IGQMSLLGV [Peptide 110e] yielded an IC50 [1, 5] of 9.7 µM and an IC50 ([2]; IC50 δ:β, Table 24) of 7 µM.

For `COC(=O)CC(=O)NOCc1ccc(Cl)c(Cl)c1` [AOC-06454], the “% Inhibition of binding of E. coli α to E. coli β” value [1] was 72.2, 75.3%.

`CC[C@H](C)[C@H](N)C(=O)NCC(=O)N[C@@H](CCC(N)=O)C(=O)N[C@@H](C)C(=O)N[C@@H](CC(=O)O)C(=O)N[C@@H](CCSC)C(=O)N[C@@H](Cc1ccccc1)C(=O)NCC(=O)N[C@H](C(=O)O)C(C)C` [DnaE] was tested, and the “inhibition of the binding of α to β” value [1] was “significant inhibition” and the “inhibition of the binding of δ to β” value [2] was “inhibited”.

For IGQADMAGV [Peptide 4], the IC50 (β subunit [3]; [13]) was greater than 10 µM and the IC50 (β subunit [3]; [14]) was greater than 10 µM.

EAQLDLFDS [Peptide 112d] showed an IC50 [1] of 1 µM and an IC50 [2] of 3.6 µM.

For `CC(C)(C)OC(=O)NCC(=O)NC(CSC(c1ccccc1)c1ccccc1)C(=O)NCC(=O)O` (centres unmarked) [Peptide 338500], the IC50 [1, 15] was greater than 1000 µM, the IC50 ([2]; IC50 δ-binding, Table 21) was 146 µM and the “inhibition of the binding of δ to β” value [2] was “significantly inhibited”.

In the case of `NC(CCC(=O)NC(CSCC(=O)c1ccc(Br)cc1)C(=O)NCC(=O)O)C(=O)O` (centres unmarked) [Peptide 131123], the IC50 [1, 15] is reported as 210 µM, the “inhibition of the binding of α to β” value [1] is reported as “significantly inhibited” and the IC50 ([2]; IC50 δ-binding, Table 21) is reported as greater than 1000 µM.

In the case of IGQLDMFGV [Peptide 1], the “inhibition of the binding of α to β” value [1] is reported as “significant inhibition”, the “inhibition of the binding of δ to β” value [2] is reported as “inhibited” and the IC50 (β subunit [3]; [13]) is reported as 0.92 µM. For the same compound, the IC50 (β subunit [3]; [14]) was 1.01 µM, the Kd (β subunit [4]; KD, biotinylated peptide on surface) was 0.5 µM and the Kd (β subunit [4]; KD, biotinylated peptide on flow cell surface) was 0.558 µM.

Compound IGQLVLGLGV [Peptide 110b] has an IC50 [1, 5] of 9.3 µM and an IC50 ([2]; IC50 δ:β, Table 24) of 6.8 µM.

Work on IGQLSLPLGV [Peptide 110c] yielded an IC50 [1, 5] of 3.4 µM and an IC50 ([2]; IC50 δ:β, Table 24) of 3.3 µM.

In the case of IGQLDLFGV [pep14], the IC50 [1, 6] is reported as 1.38 µM and the IC50 [2, 7] is reported as 9.16 µM.

`CC(C)C[C@H](NC(=O)[C@@H](N)CC(=O)O)C(=O)N[C@@H](Cc1ccccc1)C(=O)O` [DLF] (H-Asp-Leu-Phe-OH; N-terminus and C-terminus assumed) was tested, and the IC50 ([1]; α:β binding, 50% inhibition, plate inhibition assay) was roughly 343 µM, the IC50 ([2]; δ:β binding, 50% inhibition, plate binding assay) was roughly 3050 µM and the “Doubling time log phase” value (B. subtilis IH 6140; [16]) was 187 Min. For the same compound, the “Increase in lag phase” value (B. subtilis IH 6140; [16]) was 120 min, the “effect on growth rate during log phase of B. subtilis” value (B. subtilis IH 6140; peptide 1 mg/ml) was “decreasing the growth rate” and the “effect on lag phase of B. subtilis growth” value (B. subtilis IH 6140; peptide 1 mg/ml) was “increasing the lag phase”. The “inhibition of growth of B. subtilis” value (B. subtilis IH 6140; peptide 1 mg/ml, OD620 over 16 h) was “significantly inhibits”.

`CC(=O)N[C@@H](CC(=O)O)C(=O)N[C@@H](CC(C)C)C(=O)N[C@@H](Cc1ccccc1)C(N)=O` [pep18] (Ac-Asp-Leu-Phe-NH2) gave an IC50 [1, 12] of 135 µM.

With IGQASMFGV [pep2] the IC50 [1] was 946 µM and the “IC50 δ (inhibition of binding of δ to β)” value ([2]; Table 17, δ-coated plate, β 1 μg/ml) was “ni^a”.

For IGQLNLFGV [Peptide 110d], the IC50 [1, 5] was 7.8 µM and the IC50 ([2]; IC50 δ:β, Table 24) was 11.5 µM.

In the case of IGQAMSLFGV [Peptide 110a], the IC50 [1, 5] is reported as 27 µM and the IC50 ([2]; IC50 δ:β, Table 24) is reported as greater than 100 µM.

For `COC(=O)CC(=O)NOCc1ccc(Cl)c(Cl)c1` [AOL-06454], the “inhibition of the binding of E. coli α to E. coli β (CMS library screen)” value [1] was “significantly inhibited”.
